Reference: patent US20130178597A1, “POLYIMIDE PRECURSOR, POLYIMIDE, AND MATERIALS TO BE USED IN PRODUCING SAME” (UBE INDUSTRIES, LTD., priority 2010, published 2013)

Assays:
[1] = Light transmittance at 400 nm of s-BPDA powder, 10 mass % in 2 N aqueous sodium hydroxide; assay type: physicochemical; settings: light path 1 cm
Procedure: (§1) A predetermined amount of s-BPDA powder was dissolved in a 2 N aqueous solution of sodium hydroxide to obtain a 10 mass % aqueous solution. Using a MCPD-300 manufactured by Otsuka Electronics Co., Ltd., and a standard cell having a light path length of 1 cm, the light transmittance at 400 nm of the s-BPDA solution was measured using the 2 N aqueous solution of sodium hydroxide as a blank.

[2] = Solubility of s-BPDA at 25° C. in solvent; settings: s-BPDA in the solvent used in the example
Procedure: The non-dissolved s-BPDA was filtered through filter paper 5A manufactured by Advantec, Inc. to obtain s-BPDA saturated solution. 5 g of the s-BPDA saturated solution was charged into an aluminum dish, heated for 1 hour at 80° C., and then heated for 1 hour at 200° C. The solubility was calculated by determining the mass of s-BPDA remaining in the saturated solution based on the residue after heating.

[3] = Solubility of i-BPDA at 25° C. in solvent; assay type: physicochemical; settings: i-BPDA in the solvent used in the example
Procedure: The non-dissolved i-BPDA was filtered through filter paper 5A manufactured by Advantec, Inc. to obtain i-BPDA saturated solution. 5 g of the i-BPDA saturated solution was charged into an aluminum dish, heated for 1 hour at 80° C., and then heated for 1 hour at 200° C. The solubility was calculated by determining the mass of i-BPDA remaining in the saturated solution based on the residue after heating.

[4] = Light transmittance at 400 nm of i-BPDA powder, 10 mass % in 2 N aqueous sodium hydroxide; assay type: physicochemical; settings: light path 1 cm
Procedure: as §1, with “i-BPDA” for “s-BPDA”

[5] = Light transmittance at 400 nm of a-BPDA powder, 10 mass % in 2 N aqueous sodium hydroxide; assay type: physicochemical; settings: light path 1 cm
[6] = Light transmittance of solvent at 400 nm; assay type: physicochemical; settings: light path 1 cm, water as a blank
Procedure: Using a MCPD-300 manufactured by Otsuka Electronics Co., Ltd., and a standard cell having a light path length of 1 cm, the light transmittance of a solvent at 400 nm was measured using water as a blank.

[7] = Light transmittance of solvent at 400 nm after heating with refluxing; assay type: physicochemical; settings: heated to reflux for 3 hours under nitrogen atmosphere
Procedure: For light transmittance after heating with refluxing, measurement was carried out using a solvent that had been heated to reflux for 3 hours under nitrogen atmosphere having oxygen concentration of 200 ppm or less.

[8] = Light transmittance at 400 nm of trans-1,4-diaminocyclohexane powder, 10 mass % in pure water; assay type: physicochemical; settings: light path 1 cm
Procedure: as §1, with “trans-1,4-diaminocyclohexane” for “s-BPDA”, “pure water” for “a 2 N aqueous solution of sodium hydroxide”, “pure water” for “the 2 N aqueous solution of sodium hydroxide”

O=C1OC(=O)c2cc(-c3ccc4c(c3)C(=O)OC4=O)ccc21 [Example D7, 3,3′,4,4′-Biphenyltetracarboxylic dianhydride]
light transmittance of obtained s-BPDA powder at 400 nm [1]: 79%
Solubility of used solvent at 25° C. [2]: 0.3 g/100 g

O=C1OC(=O)c2cc(-c3ccc4c(c3)C(=O)OC4=O)ccc21 [Comparative Example D3, 3,3′,4,4′-Biphenyltetracarboxylic dianhydride, reference compound]
light transmittance of obtained s-BPDA powder at 400 nm [1]: 75%
Solubility of used solvent at 25° C. [2]: <0.1 g/100 g

O=C1OC(=O)c2c1cccc2-c1cccc2c1C(=O)OC2=O [Comparative Example F2, 2,2′,3,3′-Biphenyltetracarboxylic dianhydride, reference compound]
Solubility at 25° C. [3]: <0.1 g/100 g
Light Transmittance at 400 nm (i-BPDA) [4]: 79%

O=C1OC(=O)c2c1cccc2-c1cccc2c1C(=O)OC2=O [Example F3, 2,2′,3,3′-Biphenyltetracarboxylic dianhydride]
Solubility at 25° C. [3]: 6.8 g/100 g
Light Transmittance at 400 nm (i-BPDA) [4]: 93%

O=C1OC(=O)c2cc(-c3cccc4c3C(=O)OC4=O)ccc21 [Comparative Example C4, 2,3,3′,4′-Biphenyltetracarboxylic dianhydride, reference compound]
light transmittance at 400 nm (a-BPDA powder) [5]: 84%

O=C1OC(=O)c2c1cccc2-c1cccc2c1C(=O)OC2=O [Example F1, 2,2′,3,3′-Biphenyltetracarboxylic dianhydride]
Solubility at 25° C. [3]: 3.2 g/100 g
Light Transmittance at 400 nm (i-BPDA) [4]: 91%

O=C1OC(=O)c2cc(-c3cccc4c3C(=O)OC4=O)ccc21 [Comparative Example C2, 2,3,3′,4′-Biphenyltetracarboxylic dianhydride, reference compound]
light transmittance at 400 nm (a-BPDA powder) [5]: 81%

O=C1OC(=O)c2cc(-c3cccc4c3C(=O)OC4=O)ccc21 [Example C4, 2,3,3′,4′-Biphenyltetracarboxylic dianhydride]
light transmittance at 400 nm (a-BPDA powder) [5]: 92%

CN1CCCC1=O [NMP (99.96%), N-methyl-2-pyrrolidone]
Light Transmittance at 400 nm (solvent) [6]: 89%
Light Transmittance at 400 nm after reflux (solvent) [7]: 41%

O=C1OC(=O)c2cc(-c3ccc4c(c3)C(=O)OC4=O)ccc21 [Example D8, 3,3′,4,4′-Biphenyltetracarboxylic dianhydride]
light transmittance of obtained s-BPDA powder at 400 nm [1]: 91%

O=C1OC(=O)c2cc(-c3cccc4c3C(=O)OC4=O)ccc21 [Example C1, 2,3,3′,4′-Biphenyltetracarboxylic dianhydride]
light transmittance at 400 nm (a-BPDA powder) [5]: 98%

O=C1OC(=O)c2cc(-c3ccc4c(c3)C(=O)OC4=O)ccc21 [Comparative Example D5, 3,3′,4,4′-Biphenyltetracarboxylic dianhydride, reference compound]
light transmittance of obtained s-BPDA powder at 400 nm [1]: 3%

O=C1OC(=O)c2cc(-c3cccc4c3C(=O)OC4=O)ccc21 [Example C3, 2,3,3′,4′-Biphenyltetracarboxylic dianhydride]
light transmittance at 400 nm (a-BPDA powder) [5]: 94%

O=C1OC(=O)c2c1cccc2-c1cccc2c1C(=O)OC2=O [Example F2, 2,2′,3,3′-Biphenyltetracarboxylic dianhydride]
Solubility at 25° C. [3]: 4.4 g/100 g
Light Transmittance at 400 nm (i-BPDA) [4]: 92%

O=C1OC(=O)c2cc(-c3cccc4c3C(=O)OC4=O)ccc21 [Example C2, 2,3,3′,4′-Biphenyltetracarboxylic dianhydride]
light transmittance at 400 nm (a-BPDA powder) [5]: 97%

O=C1OC(=O)c2cc(-c3ccc4c(c3)C(=O)OC4=O)ccc21 [Example D1, 3,3′,4,4′-Biphenyltetracarboxylic dianhydride]
light transmittance of obtained s-BPDA powder at 400 nm [1]: 81%
Solubility of used solvent at 25° C. [2]: 1.3 g/100 g

O=C1OC(=O)c2cc(-c3ccc4c(c3)C(=O)OC4=O)ccc21 [Example D2, 3,3′,4,4′-Biphenyltetracarboxylic dianhydride]
light transmittance of obtained s-BPDA powder at 400 nm [1]: 81%

O=C1OC(=O)c2c1cccc2-c1cccc2c1C(=O)OC2=O [Example F5, 2,2′,3,3′-Biphenyltetracarboxylic dianhydride]
Light Transmittance at 400 nm (i-BPDA) [4]: 91%

N[C@H]1CC[C@H](N)CC1 [Referential Example E2, trans-1,4-diaminocyclohexane]
Light Transmittance at 400 nm (trans-1,4-diaminocyclohexane powder) [8]: 89%

N[C@H]1CC[C@H](N)CC1 [Example E2, trans-1,4-diaminocyclohexane]
Light Transmittance at 400 nm (trans-1,4-diaminocyclohexane powder) [8]: 96%

O=C1OC(=O)c2c1cccc2-c1cccc2c1C(=O)OC2=O [Example F4, 2,2′,3,3′-Biphenyltetracarboxylic dianhydride]
Light Transmittance at 400 nm (i-BPDA) [4]: 93%

O=C1OC(=O)c2c1cccc2-c1cccc2c1C(=O)OC2=O [Comparative Example F3, 2,2′,3,3′-Biphenyltetracarboxylic dianhydride, reference compound]
Light Transmittance at 400 nm (i-BPDA) [4]: 66%

O=C1OC(=O)c2c1cccc2-c1cccc2c1C(=O)OC2=O [Example F7, 2,2′,3,3′-Biphenyltetracarboxylic dianhydride]
Light Transmittance at 400 nm (i-BPDA) [4]: 89%

O=C1OC(=O)c2cc(-c3ccc4c(c3)C(=O)OC4=O)ccc21 [Example D5, 3,3′,4,4′-Biphenyltetracarboxylic dianhydride]
Solubility of used solvent at 25° C. [2]: 0.1 g/100 g

O=C1OC(=O)c2cc(-c3cccc4c3C(=O)OC4=O)ccc21 [Comparative Example C1, 2,3,3′,4′-Biphenyltetracarboxylic dianhydride, reference compound]
light transmittance at 400 nm (a-BPDA powder) [5]: 77%

O=C1OC(=O)c2cc(-c3cccc4c3C(=O)OC4=O)ccc21 [Example C5, 2,3,3′,4′-Biphenyltetracarboxylic dianhydride]
light transmittance at 400 nm (a-BPDA powder) [5]: 89%

O=C1OC(=O)c2c1cccc2-c1cccc2c1C(=O)OC2=O [Example F6, 2,2′,3,3′-Biphenyltetracarboxylic dianhydride]
Light Transmittance at 400 nm (i-BPDA) [4]: 95%

O=C1OC(=O)c2cc(-c3ccc4c(c3)C(=O)OC4=O)ccc21 [Comparative Example D4, 3,3′,4,4′-Biphenyltetracarboxylic dianhydride, reference compound]
light transmittance of obtained s-BPDA powder at 400 nm [1]: 72%

O=C1OC(=O)c2c1cccc2-c1cccc2c1C(=O)OC2=O [Comparative Example F1, 2,2′,3,3′-Biphenyltetracarboxylic dianhydride, reference compound]
Light Transmittance at 400 nm (i-BPDA) [4]: 79%

O=C1OC(=O)c2cc(-c3ccc4c(c3)C(=O)OC4=O)ccc21 [Example D4, 3,3′,4,4′-Biphenyltetracarboxylic dianhydride]
light transmittance of obtained s-BPDA powder at 400 nm [1]: 78%

O=C1OC(=O)c2cc(-c3ccc4c(c3)C(=O)OC4=O)ccc21 [Comparative Example D2, 3,3′,4,4′-Biphenyltetracarboxylic dianhydride, reference compound]
light transmittance of obtained s-BPDA powder at 400 nm [1]: 75%
Solubility of used solvent at 25° C. [2]: <0.1 g/100 g

O=C1OC(=O)c2cc(-c3ccc4c(c3)C(=O)OC4=O)ccc21 [Example D6, 3,3′,4,4′-Biphenyltetracarboxylic dianhydride]
Solubility of used solvent at 25° C. [2]: 0.4 g/100 g

CN1CCCC1=O [NMP (99.62%), N-methyl-2-pyrrolidone]
Light Transmittance at 400 nm (solvent) [6]: 88%
Light Transmittance at 400 nm after reflux (solvent) [7]: 0.1%

O=C1OC(=O)c2cc(-c3ccc4c(c3)C(=O)OC4=O)ccc21 [Example D3, 3,3′,4,4′-Biphenyltetracarboxylic dianhydride]
light transmittance of obtained s-BPDA powder at 400 nm [1]: 82%
Solubility of used solvent at 25° C. [2]: 2.3 g/100 g

O=C1OC(=O)c2cc(-c3ccc4c(c3)C(=O)OC4=O)ccc21 [Comparative Example D1, 3,3′,4,4′-Biphenyltetracarboxylic dianhydride, reference compound]
light transmittance of obtained s-BPDA powder at 400 nm [1]: 75%

N[C@H]1CC[C@H](N)CC1 [Referential Example E1, trans-1,4-diaminocyclohexane]
Light Transmittance at 400 nm (trans-1,4-diaminocyclohexane powder) [8]: 86%
